Measurements taken from patent US5001141A, “N-(2-(2-oxo-1-imidazolidinyl)ethyl)-3-phenyl-urea and analogs as agents for induction of antioxidant enzymes” (E. I. Du Pont de Nemours and Company, priority 1989, dated 1991).
Blank lines part the entries; values can stand above or below the compound they belong to.

Legend:
[1] = tested on: glutathione peroxidase (GSH-PX); assay: Glutathione peroxidase activity in bovine aortic endothelial cells; format: cell-based; details: for GSH-PX activity: n = 6, mean ± SEM
Protocol: (§1) 1. In vitro Administration of compounds of Examples 1 or 2 (Compound 1 and Compound 2, respectively).
(§2) Two different cell types, human gingival fibroblasts (Gin-1) and bovine aortic endothelial cells (CPA ATCl CCL207) were obtained from the American Type Culture Collection. They were incubated until confluent in Dulbecco's modified Eagles medium, supplemented with 2 mM glutamine and 10% heat-inactivated fetal calf serum at 37° C. in a humidified chamber with 5% CO2 in air. Compounds were dissolved in DMSO, diluted to 100 mM with distilled deionized H2 O, and further diluted with Dulbecco's medium (without fetal bovine serum), to desired concentrations. The usual time of incubation with the compounds of this invention was 24 hr at 37° C. in a humidified incubator with 5% CO2 in air. Lactic dehydrogenase (LDH) release was determined in several in vitro preparations as an index of cytotoxicity. using Sigma Diagnostic Kit #500. LDH release was expressed as a percentage of total LDH activity released from cells treated with 0.4% Triton X [Cabaud, P. G., Wroblewski, F. Am. J. Clin. Pathol. 30:234-236, (1958)].
(§3) Prior to the enzymatic assays the Gin-1 cells and aortic endothelial cells were prepared as follows: cells were rinsed several times with phosphate buffered saline without Ca^+2 or Mg^+2, removed from the culture flasks with 0.25% trypsin, counted using a hemocytometer, and resuspended at 2-3×10^6 cells/ml in Dulbecco's medium without fetal calf serum. Cells were then disrupted by pulse sonication and centrifuged at 100,000 xg at 4° C. Total protein [Bradford, M. M., Anal. Biochem 72:248-254, (1976)] and enzyme activities were determined on the cell sonicates, using standard techniques, SOD activity was determined using the method of McCord and Fridovich [McCord, J., Fridovich I., J. Biol. Chem. 244:6049-6055, (1969)]. Catalase activity was measured using the method of Beers and Sizer [Beers, R. F., Sizer, I. W., J. Biol. Chem. 195:133-146, (1952)]. Glutathione peroxidase activity was determined by the method of Guenzler et al. [Guenzler, W. A., Kremers, H., Flohe, L., Z. Klin. Chem. Klin. Biochem. 12:444-448 (1974)].
(§4) All enzyme activities were expressed as units of activity per mg protein. The data were compared by Student's t test [Snedecor, W. G., Statistical Methods, p. 45, (1964)]. The level of significance was taken as p<0.05.

[2] = tested on: superoxide dismutase (SOD); assay: SOD activity in Gin-1 human gingival fibroblasts; format: cell-based; details: Gin-1 cells; for SOD % Increase: vs untreated
Protocol: as §1, §2, §3, §4

[3] = LDH release from Gin-1 cells as index of cytotoxicity; format: cell-based, human; details: human, % of total LDH released by 0.4% Triton X, mean ± SEM
Protocol: as §2

Gin-1 cells = assay: as above; format: cell-based, human
Protocol: as §2

catalase (CAT) [4] = assay: Catalase activity in bovine aortic endothelial cells; format: cell-based; details: for CAT activity: n = 6, mean ± SEM
Protocol: as §1, §2, §3, §4

[5] = tested on: superoxide dismutase (SOD); assay: SOD activity in rat heart, liver and lung after in vivo treatment
Protocol: Male Lewis rats (250 g) were injected with 0.9% saline (controls) or Compound 1 (100 mg/kg) intraperitoneally twice a day for two days. Heart, liver and lungs were removed en bloc, dissected free of extraneous tissue, and blotted dry to remove contaminating blood. A portion of each tissue (approximately 0.5 g) was homogenized, and centrifuged at 500 xg for 10 minutes at 4° C. A 2 ml aliquot of supernatant was removed and centrifuged at 25,000 xg for 30 minutes. The supernatants were then decanted, and analyzed for SOD and CAT activities and total protein as described above.
as §4

[6] = tested on: glutathione peroxidase (GSH-PX); assay: Glutathione peroxidase activity in Gin-1 human gingival fibroblasts; format: cell-based; details: Gin-1 cells
Protocol: as §1, §2, §3, §4

catalase (CAT) [7] = assay: Catalase activity in Gin-1 human gingival fibroblasts; format: cell-based; details: Gin-1 cells; for CAT % Increase: vs untreated
Protocol: as §1, §2, §3, §4

[8] = tested on: superoxide dismutase (SOD); assay: SOD activity in bovine aortic endothelial cells; format: cell-based; details: for SOD activity: n = 10, mean ± SEM, * P < 0.05 vs 0 mM
Protocol: as §1, §2, §3, §4

[9] = tested on: polymorphonuclear leukocyte infiltration into ozone-exposed rat lungs; details: Bassett et al. 1988; cited from earlier work
[10] = tested on: superoxide dismutase (SOD) and catalase (CAT); assay: Induction of antioxidant enzymes SOD and CAT in mammalian cells and in organs of rats; details: Gin-1 cells, 1.0 mM, 24 hours; either SOD or CAT, or both enzymes
Protocol: as §1, §2
as §3, with “Cells were then disrupted by pulse sonication and centrifuged at 100,000 xg at 4° C.” left out, “Chem. Klin. Biochem. 12:444-448 (1974)].” left out
All enzyme activities were expressed as units of activity per mg protein. […]

[11] = Compound 2, at one or more concentrations

SMILES: O=C(NCCN1CCNC1=O)Nc1ccccc1 [Compound 1, 1-[2-(2-oxo-1-imidazolidinyl)ethyl]-3-phenylurea]
GSH-PX activity (in words) [1]: not significantly different
GSH-PX activity ([1]; 0.05 mM (so in the source)): 33.5 ± 3.2 U/mg Protein
GSH-PX activity ([1]; 0.25 mM): 28.1 ± 5.7 U/mg Protein
GSH-PX activity ([1]; 1.0 mM): 59.8 ± 17 U/mg Protein
SOD activity ([2]; 0.125 mM, n=7, mean ± SEM, * P < 0.05 vs 0 mM): 13.1 ± 1.5 U/mg Protein
SOD activity ([2]; 0.25 mM, n=7, mean ± SEM, * P < 0.05 vs 0 mM): 20.7 ± 3.3 U/mg Protein
SOD activity ([2]; 1.0 mM, n=7, mean ± SEM, * P < 0.05 vs 0 mM): 11.6 ± 1.4 U/mg Protein
SOD activity ([2]; 2.0 mM, n=7, mean ± SEM, * P < 0.05 vs 0 mM): 13.5 ± 1.7 U/mg Protein
SOD activity compared with controls (in words) ([2]; 0.125-2.0 mM Compound 1): significantly increased (P<0.05)
cytotoxicity at 24 h, 125 µM ([3]; 0.125 mM): 7 ± 2%
cytotoxicity at 24 h, 1000 µM ([3]; 1.0 mM): 8 ± 2%
Cytotoxicity as shown by LDH release (in words) (Gin-1 cells): no indication of cytotoxicity
CAT activity (catalase (CAT) [4]; 0.05 mM (so in the source)): 27.1 ± 3.3 U/mg Protein
CAT activity (catalase (CAT) [4]; 0.25 mM): 25.7 ± 3.6 U/mg Protein
CAT activity (catalase (CAT) [4]; 1.0 mM, * P < 0.05 vs 0 mM): 31.9 ± 2.4 U/mg Protein
Catalase activity (in words) (catalase (CAT) [4]; highest concentration (1 mM) only): significantly increased at the highest concentration (1 mM) only
Tissue SOD Activity, Heart ([5]; rat heart, 100 mg/kg i.p. 2 × /day for 2 days, (8), mean ± SEM, * P < 0.05 vs saline control): 194 ± 14 U/mg Protein
SOD activity in all three tissues (in words) ([5]; rat heart, liver, lung, compared with controls): induced SOD activity in all three tissues studied
Tissue SOD Activity, Liver ([5]; rat liver, 100 mg/kg i.p. 2 × /day for 2 days, (8), mean ± SEM, * P < 0.05 vs saline control): 444 ± 68 U/mg Protein
Tissue SOD Activity, Lung ([5]; rat lung, 100 mg/kg i.p. 2 × /day for 2 days, (8), mean ± SEM, * P < 0.05 vs saline control): 134 ± 7 U/mg Protein
GSH-PX activity (in words) [6]: remained constant
GSH-PX activity ([6]; 0.125 mM, n=6, mean ± SEM): 52.1 ± 4.7 U/mg Protein
GSH-PX activity ([6]; 0.25 mM, n=6, mean ± SEM): 45.8 ± 3.5 U/mg Protein
GSH-PX activity ([6]; 1.0 mM, n=6, mean ± SEM): 45.1 ± 5.3 U/mg Protein
GSH-PX activity ([6]; 2.0 mM, n=6, mean ± SEM): 47.8 ± 3.8 U/mg Protein
CAT activity (catalase (CAT) [7]; 0.125 mM, n=4, mean ± SEM, * P < 0.05 vs 0 mM): 9.1 ± 1.1 U/mg Protein
CAT activity (catalase (CAT) [7]; 0.25 mM, n=4, mean ± SEM, * P < 0.05 vs 0 mM): 10.0 ± 1.8 U/mg Protein
CAT activity (catalase (CAT) [7]; 1.0 mM, n=4, mean ± SEM, * P < 0.05 vs 0 mM): 11.2 ± 2.0 U/mg Protein
CAT activity (catalase (CAT) [7]; 2.0 mM, n=4, mean ± SEM, * P < 0.05 vs 0 mM): 13.9 ± 1.6 U/mg Protein
CAT activity compared with controls (in words) (catalase (CAT) [7]; 0.125-2.0 mM Compound 1): significantly increased (P<0.05)
SOD activity ([8]; 0.05 mM (so in the source)): 9.5 ± 1.8 U/mg Protein
SOD activity ([8]; 0.25 mM): 6.7 ± 0.8 U/mg Protein
SOD activity ([8]; 1.0 mM): 12.2 ± 3.4 U/mg Protein
SOD activity (in words) ([8]; concentration-dependent): significantly increased (P<0.05) in a concentration-dependent manner
Polymorphonuclear leukocyte infiltration into ozone-exposed rat lungs [9]: decreased polymorphonuclear leukocyte infiltration

SMILES: O=C(NCCN1CCNC1=O)Nc1ccc(Cl)cc1 [Example 7]
SOD and/or CAT activity (in words) [10]: increased
SOD activity ([2]; 1.0 mM, 24 hours, Table 5): 5.8 ± 1.2 U/mg Protein
SOD % Increase ([2]; 1.0 mM, 24 hours): 51%
CAT activity (catalase (CAT) [7]; 1.0 mM, 24 hours, Table 5): 3.6 ± 0.9 U/mg Protein
CAT % Increase (catalase (CAT) [7]; 1.0 mM, 24 hours): 95%

Continued, in another order:

GSH-PX activity (in words) [6]: remained constant
SMILES: O=C(NCCN1CCNC1=O)Nc1ccc(F)cc1 [Compound 2, 1-[2-(2-oxo-1-imidazolidinyl)ethyl]-3-(4-fluorophenyl)urea]
SOD activity ([2]; 0.25 mM, n = 8, mean ± SEM, * P < 0.05 vs 0 mM): 15.2 ± 1.6 U/mg Protein
SOD activity ([2]; 0.50 mM, n = 8, mean ± SEM, * P < 0.05 vs 0 mM): 15.9 ± 1.7 U/mg Protein
SOD activity ([2]; 1.0 mM, n = 8, mean ± SEM, * P < 0.05 vs 0 mM): 14.5 ± 2.2 U/mg Protein
SOD activity (in words) [2, 11]: significantly increased (P<0.05) at one or more concentrations
GSH-PX activity ([6]; Compound 2 table, 0.25 mM, n = 6, mean ± SEM): 35.0 ± 1.4 U/mg Protein
GSH-PX activity ([6]; Compound 2 table, 0.50 mM, n = 6, mean ± SEM): 40.0 ± 4.7 U/mg Protein
GSH-PX activity ([6]; Compound 2 table, 1.0 mM, n = 6, mean ± SEM): 39.1 ± 4 U/mg Protein
CAT activity (catalase (CAT) [7]; 0.25 mM, n=6, mean ± SEM): 8.3 ± 0.8 U/mg Protein
CAT activity (catalase (CAT) [7]; 0.50 mM, n = 6, mean ± SEM, * P < 0.05 vs 0 mM): 11.4 ± 1.8 U/mg Protein
CAT activity (catalase (CAT) [7]; 1.0 mM, n=6, mean ± SEM): 9.5 ± 1.4 U/mg Protein
CAT activity (in words) (catalase (CAT) [7]; [11]): significantly increased (P<0.05) at one or more concentrations

Effect on SOD activity, ranking among Ex. 7, 11, 12 (in words) ([2]; 1.0 mM, 24 hours): least effect on SOD activity
Effect on CAT activity, ranking among Ex. 7, 11, 12 (in words) (catalase (CAT) [7]; 1.0 mM, 24 hours): affected CAT the most
SMILES: O=C(NCCN1CCNC1=S)Nc1ccccc1 [Example 11]
SOD and/or CAT activity (in words) [10]: increased
SOD activity ([2]; 1.0 mM, 24 hours, Table 5): 4.0 ± 0.8 U/mg Protein
SOD % Increase ([2]; 1.0 mM, 24 hours): 3%
CAT activity (catalase (CAT) [7]; 1.0 mM, 24 hours, Table 5): 4.1 ± 1.6 U/mg Protein
CAT % Increase (catalase (CAT) [7]; 1.0 mM, 24 hours): 118%

Effect on SOD activity, ranking among Ex. 7, 11, 12 (in words) ([2]; 1.0 mM, 24 hours): greatest effect on SOD
Effect on CAT activity, ranking among Ex. 7, 11, 12 (in words) (catalase (CAT) [7]; 1.0 mM, 24 hours): least effect on CAT
SMILES: O=C(Nc1ccccc1)NN1CCCOC1=O [Example 12]
SOD and/or CAT activity (in words) [10]: increased
SOD activity ([2]; 1.0 mM, 24 hours, Table 5): 6.5 ± 0.9 U/mg Protein
SOD % Increase ([2]; 1.0 mM, 24 hours): 69%
CAT activity (catalase (CAT) [7]; 1.0 mM, 24 hours, Table 5): 2.5 ± 0.6 U/mg Protein
CAT % Increase (catalase (CAT) [7]; 1.0 mM, 24 hours): 35%
